Patent US8299067B2, “5-demethoxyfumagillol and derivatives thereof” (Versitech Limited, priority 2008, dated 2012)

Assays:
[1] = system: bovine arotic endothelial cells (BAEC); test: BAEC proliferation assay; type: cell-based; details: tritiated thymidine incorporation, 24 hours drug plus 6 hours label, 0.5% DMSO
Protocol: (A) BAEC Proliferation Assay
About 2500 bovine arotic endothelial cells (BAEC) in 195 μl of DMEM (Dulbecco's Modified Eagle's Medium) were plated per well of a 96-well plate and grown at 37° C. and 5% CO2. Cells were allowed to recover for 12 hours. 1 μL of 200 times drug stock solution was added to each treatment well. The final vehicle (DMSO) concentration was 0.5%. Vehicle only was used as a control for maximum proliferation. Three wells were treated for each drug concentration. After 24 hours, 1 μCi of tritiated thymidine (diluted in DMEM to a total volume of 10 μL) was added to each well. After additional 6 hours incubation, each well was washed in 180 μl of PBS buffer. 70 μL of trypsin was added to each well. Plates were incubated for 5 minutes at 37° C. Cells were harvested using a Harvester 96 Mach III M (Tomtec) and transferred to glass fiber filters (Wallac). 6 mL of Betaplate Scint (PerkinElmer) was added to each filter in a sealed sample bag. Scintillation counting was done in using a 1450 MicroBeta counter (Wallac). CPM were normalized to vehicle control, averaged across three replicates, and fit to the following equation using GraphPadPrism v4.0: Y=Bottom+(Top-Bottom)/(1+10^((Log EC50−X)*HillSlope)) wherein X is the logarithm of concentration and Y is the response. Y started at Bottom and went to Top with a sigmoid shape. The bottom value was constrained to zero.

[2] = molecular target: T1, Recombinant human MetAP-2 (Homo sapiens, UniProt P50579); test: MetAP-2 enzymatic assay; type: biochemical; details: 1 nM purified human MetAP-2, inhibitor incubated at 37° C. for 30 minutes, 1 mM Met-Gly-Met-Met, released methionine
T1 construct: made in house; host or cells: insect cells
T1 sequence (P50579 whole entry): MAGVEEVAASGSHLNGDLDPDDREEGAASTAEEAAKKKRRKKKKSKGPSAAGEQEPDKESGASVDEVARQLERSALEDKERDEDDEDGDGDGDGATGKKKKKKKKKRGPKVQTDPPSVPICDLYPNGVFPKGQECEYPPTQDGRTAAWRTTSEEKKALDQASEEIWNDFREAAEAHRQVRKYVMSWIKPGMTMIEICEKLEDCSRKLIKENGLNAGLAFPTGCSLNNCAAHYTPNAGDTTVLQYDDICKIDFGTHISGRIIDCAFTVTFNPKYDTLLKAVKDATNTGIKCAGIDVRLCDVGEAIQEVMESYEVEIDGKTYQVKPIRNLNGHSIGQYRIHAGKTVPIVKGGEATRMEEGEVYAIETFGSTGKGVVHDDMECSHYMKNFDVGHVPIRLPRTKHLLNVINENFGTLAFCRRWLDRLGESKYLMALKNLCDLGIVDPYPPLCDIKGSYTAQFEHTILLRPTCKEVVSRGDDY
Protocol: (B) MetAP-2 Enzymatic Assay Recombinant human MetAP-2 was expressed and purified from insect cells as previously described (Li, X.; Chang, Y.-H. Biochem. Biophys. Res. Commun. 1996, 227, 152). […] To start the enzymatic reaction, […] was added to a concentration of 1 mM to the reaction mixture. Released methionine was quantified at different time points (0, 2, 3 and 5 min) using the method of Zuo et al (Zuo, S.; Guo, Q.; Ling, C.; Chang, Y-.H. Mol. Gen. Genet. 1995, 246, 247).

Row | Structure (SMILES) | IC50 [1] [nM] | IC50 [2] [nM] | IC50 ([1]; Bos taurus, BAEC, 30 h) [nM]
1 | CC(C)=CCC1OC1(C)C1CC(O)CCC12CO2 (stereo not shown) [5-Demethoxyfumagillol, 5-demethoxyfumagillol] | 0.28 | 975 | –
2 | CC(C)=CC[C@H]1O[C@]1(C)[C@H]1C[C@H](OC(=O)N[C@@H](C(N)=O)C(C)C)CC[C@]12CO2 [Compound 17a] | – | 29 | 0.21
3 | CC(C)=CC[C@H]1O[C@]1(C)[C@H]1C[C@H](OC(=O)NN2CCCCC2)CC[C@]12CO2 [Compound 17ab] | – | – | 0.04
4 | CC(C)=CC[C@H]1O[C@]1(C)[C@H]1C[C@H](OC(=O)Nc2nccs2)CC[C@]12CO2 [Compound 17ac] | – | – | 0.038
5 | CC(C)=CC[C@H]1O[C@]1(C)[C@H]1C[C@H](OC(=O)N[C@H](C(N)=O)C(C)C)CC[C@]12CO2 [Compound 17b] | – | 50 | 0.11
6 | CC(C)=CC[C@H]1O[C@]1(C)[C@H]1C[C@H](OC(=O)N[C@H](Cc2ccccc2)C(N)=O)CC[C@]12CO2 [Compound 17c] | – | 16 | 0.039
7 | CC(C)=CC[C@H]1O[C@]1(C)[C@H]1C[C@H](OC(=O)N[C@@H](Cc2ccccc2)C(N)=O)CC[C@]12CO2 [Compound 17d] | – | 56 | 0.067
8 | CC(C)=CC[C@H]1O[C@]1(C)[C@H]1C[C@H](OC(=O)N[C@@H](C(N)=O)c2ccccc2)CC[C@]12CO2 [Compound 17e] | – | 42 | 0.085
9 | CC(C)=CC[C@H]1O[C@]1(C)[C@H]1C[C@H](OC(=O)N[C@H](CC(C)C)C(N)=O)CC[C@]12CO2 [Compound 17f] | – | 39 | 0.092
10 | CC(C)=CC[C@H]1O[C@]1(C)[C@H]1C[C@H](OC(=O)N[C@@H](Cc2ccccc2)C(=O)NCCCN=[N+]=[N-])CC[C@]12CO2 [Compound 17g] | – | 41 | 1.41
11 | CC(C)=CC[C@H]1O[C@]1(C)[C@H]1C[C@H](OC(=O)N[C@@H](Cc2ccccc2)C(=O)N2CCOCC2)CC[C@]12CO2 [Compound 17h] | – | 44 | 0.079
12 | C=CCNC(=O)[C@H](Cc1ccccc1)NC(=O)O[C@@H]1CC[C@]2(CO2)[C@@H]([C@@]2(C)O[C@@H]2CC=C(C)C)C1 [Compound 17i] | – | 47 | 0.059
13 | CC(C)=CC[C@H]1O[C@]1(C)[C@H]1C[C@H](OC(=O)N[C@@H](Cc2ccccc2)C(=O)NC2CC2)CC[C@]12CO2 [Compound 17j] | – | 41 | 0.027
14 | CC(C)=CC[C@H]1O[C@]1(C)[C@H]1C[C@H](OC(=O)N[C@@H](Cc2ccccc2)C(=O)N2CCN(Cc3ccc(F)cc3)CC2)CC[C@]12CO2 [Compound 17k] | – | 12 | 0.21
15 | C#CCNC(=O)[C@@H](Cc1ccccc1)NC(=O)O[C@@H]1CC[C@]2(CO2)[C@@H]([C@@]2(C)O[C@@H]2CC=C(C)C)C1 [Compound 17l] | – | 21 | 0.051
16 | COc1ccc(CNC(=O)[C@H](Cc2ccccc2)NC(=O)O[C@@H]2CC[C@]3(CO3)[C@@H]([C@@]3(C)O[C@@H]3CC=C(C)C)C2)cc1 [Compound 17m] | – | 11 | 0.19
17 | CC(C)=CC[C@H]1O[C@]1(C)[C@H]1C[C@H](OC(=O)N[C@H](C(=O)NC2CC2)C(C)C)CC[C@]12CO2 [Compound 17n] | – | 19 | 0.031
18 | CC(C)=CC[C@H]1O[C@]1(C)[C@H]1C[C@H](OC(=O)N[C@H](C(=O)NC2CCCC2)C(C)C)CC[C@]12CO2 [Compound 17o] | – | 28 | 0.035
19 | COC(=O)[C@@H](NC(=O)O[C@@H]1CC[C@]2(CO2)[C@@H]([C@@]2(C)O[C@@H]2CC=C(C)C)C1)C(C)C [Compound 17p] | – | 27 | 0.062
20 | CC(C)=CC[C@H]1O[C@]1(C)[C@H]1C[C@H](OC(=O)N2CCN(c3ccc([N+](=O)[O-])cc3)CC2)CC[C@]12CO2 [Compound 17q] | – | 26 | 0.02
21 | CC(C)=CC[C@H]1O[C@]1(C)[C@H]1C[C@H](OC(=O)N2CCC2)CC[C@]12CO2 [Compound 17r] | – | – | 0.038
22 | CC(C)=CC[C@H]1O[C@]1(C)[C@H]1C[C@H](OC(=O)N2CCCC2)CC[C@]12CO2 [Compound 17s] | – | – | 0.04
23 | CC(C)=CC[C@H]1O[C@]1(C)[C@H]1C[C@H](OC(=O)N2CCCCC2)CC[C@]12CO2 [Compound 17t] | – | – | 0.081
24 | CC(C)=CC[C@H]1O[C@]1(C)[C@H]1C[C@H](OC(=O)N2CCN(C)CC2)CC[C@]12CO2 [Compound 17u] | – | – | 0.089
25 | CC(C)=CC[C@H]1O[C@]1(C)[C@H]1C[C@H](OC(=O)N2CCN(c3ccc(F)cc3)CC2)CC[C@]12CO2 [Compound 17v] | – | – | 0.068
26 | CC(C)=CC[C@H]1O[C@]1(C)[C@H]1C[C@H](OC(=O)N2CCN(CC3CCCCC3)CC2)CC[C@]12CO2 [Compound 17w] | – | – | 0.074
27 | C=CCN1CCN(C(=O)O[C@@H]2CC[C@]3(CO3)[C@@H]([C@@]3(C)O[C@@H]3CC=C(C)C)C2)CC1 [Compound 17x] | – | – | 0.047
28 | CC(C)=CC[C@H]1O[C@]1(C)[C@H]1C[C@H](OC(=O)N2CCN(C3CCCC3)CC2)CC[C@]12CO2 [Compound 17y] | – | – | 0.031
29 | CC(C)=CC[C@H]1O[C@]1(C)[C@H]1C[C@H](OC(=O)N2CCOCC2)CC[C@]12CO2 [Compound 17z] | – | – | 0.048
30 | CO[C@@H]1[C@H](O)CC[C@]2(CO2)[C@H]1[C@@]1(C)O[C@@H]1CC=C(C)C [Fumagillol] | 2.04 | 909 | –
